From PubChem BioAssay (NCI)
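The compound was tested at five concentrations on cells cultured in 96-well plates, with a 48-hour exposure period. GI50 marks 50% less growth. TGI: concentration producing complete growth inhibition.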 Where a SMILES comes first, the peptide text is derived from it. [ ]: non-standard residue; d: D form.

Assays:
Experiment in all cases: NCI anticancer screen, dose series, 48 h
[1] = tested on: HOP-62 NSCLC
[2] = tested on: NCI-H226 lung
[3] = tested on: NCI-H522 lung
[4] = tested on: RXF 393 renal
[5] = tested on: SK-MEL-2 melanoma
[6] = tested on: SK-MEL-5 melanoma
[7] = tested on: SN12C renal
[8] = tested on: SNB-19 CNS

Structure (SMILES)	GI50 [1] [µM]	TGI [1] [µM]	GI50 [2] [µM]	TGI [2] [µM]	GI50 [3] [µM]	TGI [3] [µM]	GI50 [4] [µM]	TGI [4] [µM]	GI50 [5] [µM]	TGI [5] [µM]	GI50 [6] [µM]	TGI [6] [µM]	GI50 [7] [µM]	TGI [7] [µM]	GI50 [8] [µM]	TGI [8] [µM]
COc1ccc2c(c1)C=CC1C2CC[C@]2(C)C(NC(=O)/C=C/c3ccc(O)c(O)c3)CCC12 (stereo not given in full)	1.21	7.59	15.3	41.3	3.41	10.9	17.6	45.8	25.7	62.1	14.9	40.1	13.6	32.2	5.41	19.6
CCN(CC)CCNc1ccc([N+](=O)[O-])c2nc3ccc(OC)cc3c(N)c12		3.74		4.41		0.551		2.58		3.22		2.22		2.83		3.29
NC1=C(O)C(=O)C(c2c[nH]c3ccc(OCc4ccccc4)cc23)O1 (stereo not given)		> 100		> 100		> 100		> 100		> 100		> 100		> 100		> 100
Cn1cc(-c2csc(-c3cn(C(=O)OC(C)(C)C)c4ccccc34)n2)c2cccnc21	12.1	30.4	3.07	20.6	3.84	25.4	2.26	9.29	13.8	36.3	2.56	13.2	6.45	21.6	10.4	30.1
CS(=O)(=O)CCNCc1ccoc1-c1ccc2ncnc(Nc3ccc(OCc4ccccc4)cc3)c2c1	> 25	> 25	> 25	> 25	> 25	> 25	7.25	> 25	> 25	> 25	9.74	> 25	> 25	> 25	> 25	> 25
CC1=C(SCCC(=O)OC(C[Se]C2=C(C)C(=O)c3ccccc3C2=O)C(=O)NC(C)(C)C)C(=O)c2ccccc2C1=O (stereo not given)	0.32	1.68	1.87	4.14	1.57	3.4	1.73	3.33	2.04	3.65	1.52	2.86	1.47	2.99	0.867	2.08
COc1ccc2c(c1)[nH]c1c3ccc(OC)cc3oc(=O)c21		> 100		> 100				> 100		> 100		> 100		> 100		> 100
CN1CCN(c2nc3cc(F)ccc3n3cccc23)CC1		> 100		54.1		> 100		> 100				38		> 100		> 100
COc1ccc(C2C3=C(COC3=O)N(CCO)c3cc4c(cc32)CCC4)cc1 (stereo not given)	9.02	> 50	21.4	> 50	0.808	3.73	4.24	27.1	1.45	4.74	2.38	> 50	19	> 50	7.48	> 50
CC1/C(=N/O)CC(c2ccccc2)N(N=O)C1c1ccccc1 (stereo not given)		> 100		> 100		> 100		> 100		> 100		> 100		> 100		> 100
C1CC[N-]CC1.CC(=N\O)/C(C)=N/O.CC(=N\O)/C(C)=N/O.C[CH-]C(C)O.[Co+2]	21.7	85.9	26.2	69	10.3	22	15	43.8	17.9	34.9	20.1	43.1	40.1	> 100	49.6	> 100
CCCC(=O)OC(OC(=O)CCC)c1ccc([N+](=O)[O-])o1		> 100				28.9		54		86.2		> 100		31.3		> 100
C[C@H]1CC[C@@H]2[C@@H](C)[C@H]3[C@H](C[C@H]4[C@@H]5CC=C6C[C@@H](O)CC[C@]6(C)[C@H]5CC[C@]34C)N2C1		> 100		> 100		> 100		46.1		> 100		> 100		> 100		> 100
CN(C)Cc1cc(C(C)(C)C)cc(CN(C)C)c1O		> 100				> 100		> 100		> 100		> 100		> 100		> 100
O=S(=O)(Nc1ccc(Cl)c(Cl)c1)c1ccc(-c2cnc(C3CC3)o2)cc1	0.524	16.7	1.82	19.5	0.329	15.1	0.376	8.44	2.43	24.4	0.478	14.6	0.761	17.3	0.534	17.1
CCSc1nc(N)c2cnn(CC)c2n1	20.1	80.7	3.41	30.9	> 100	> 100	2.98	7.14	2.12	5.88	2.58	8.05	4.12	26.1	30.2	> 100
C=C1C(=O)OC2(C)CCC1CC1OC1(C)CCC=C(C)CCC2O (stereo not given)				> 100		> 100				> 100		> 100		> 100		> 100
COC(=N)CCCl		> 100		> 100		> 100		> 100				> 100		> 100		> 100
N/C(CC(=O)NOC(=O)c1ccccc1)=N/OC(=O)c1ccccc1		> 100		92.5				60.6				> 100		> 100		> 100

Structure (SMILES)	GI50 [1] [µM]	TGI [1] [µM]	GI50 [2] [µM]	TGI [2] [µM]	GI50 [3] [µM]	TGI [3] [µM]	GI50 [4] [µM]	TGI [4] [µM]	GI50 [5] [µM]	TGI [5] [µM]	GI50 [6] [µM]	TGI [6] [µM]	GI50 [7] [µM]	TGI [7] [µM]	GI50 [8] [µM]	TGI [8] [µM]
C=Cc1cc(OC)c2c(c1)c(=O)oc1c2cc(OC)c2c(O)ccc(C3OC(C(C)O)C(O)C3O)c21 (stereo not given)	0.00996	0.0595	0.023	0.099	0.00475	0.03	0.00181	0.00384			0.00775	0.0555	0.0229	0.172	0.028	0.246
c1ccc(-c2cc3n4c(-c5ccccc5)nn(-c5ccccc5)c4cnc-3n2)cc1	13.2	> 50	> 50	> 50	> 50	> 50	4.16	33.8	> 50	> 50	> 50	> 50	> 50	> 50	12.5	> 50
CC(C)OP(=O)(OC(C)C)/C(C#N)=C/c1c[nH]c2ccccc12		> 100		> 100		> 100		> 100		> 100		> 100		> 100		> 100
COc1cc2c(=O)n(CC3CCCCC3)c3c4cc[nH]c4ncc3c2cc1OC	2.54	11.2	0.0556	17.2	1.34	18.3	0.407	5.55	8.69	41.7	4.37	25.9	1.46	11.6	5.16	19.5
C=C(CN1CCN(c2ccc(F)c(Cl)c2)CC1)c1ccc(C(=O)Nc2ccccc2N)cc1	3.09	16.4	9.12	55.3	1.8	5.33	3.84	39.2	6.12	64	5.62	22.3	5.1	59.5	> 100	> 100
CCCCCCCCc1cc(O)ccc1O	25.5	60.6	17.3	41.7	5.65	25.3	10.7	24.9	13	30.8	17	30.7	14.3	27.4	18.5	39.9
COc1ccc(F)cc1-c1ccnc2[nH]c(C3=CCN(C4CCC(CC(=O)O)CC4)CC3)cc12 (stereo not given)	0.362	> 100			0.159	0.714	0.0413	0.216			0.121	0.389	0.146	35.5	0.152	> 100
N=C1C=C(N)C(=O)c2ccccc21	0.204	0.435	0.19	0.394	0.17	0.342	0.182	0.337	0.189	0.373	0.174	0.319	0.188	0.376	0.598	1.97
O=C(N/N=C/c1ccc(N(CCCl)CCCl)cc1)c1ccc(C(=O)N/N=C/c2ccc(N(CCCl)CCCl)cc2)cc1	0.653	> 100	57.4	> 100	0.465	> 100	7.63	> 100	2.13	33.3	18.1	> 100	0.232	> 100	38.6	> 100
CSCC[C@H](NC(=O)[C@@H](N)CC(N)=O)C(=O)N[C@@H](Cc1c[nH]c2ccccc12)C(=O)N[C@@H](CCC(N)=O)C(=O)N[C@@H](CCC(=O)O)C(=O)N[C@H](C(=O)NCC(=O)N[C@@H](CCCCN)C(=O)N[C@H](C)C(=O)O)C(C)C (H-NMWQEVGK[dA]-OH)		> 100		> 100				> 100				> 100		> 100		> 100
C[C@@H](C[C@H](CCO)c1ccccc1)c1ccc2ccccc2c1	1.52	2.99			1.33	2.78	1.45	2.91	1.52	3.02	1.57	2.91	1.69	3.22	1.79	3.42
Cc1cc2nc(-c3ccc(O)c(O)c3)n(Cc3ccc(O)c(O)c3)c2cc1C	45.6	> 100	18.7	35	6.71	23.9	21.2	> 100			17.5	39.9	18.5	44.8	65	> 100
CC(=O)OC1=C(CC(C)(C)C)C(=O)c2ccccc2C1=O		> 100		> 100				82.7		99.4		51.3				> 100
CCOc1ccccc1N=Cc1c2ccccc2cc2ccccc12		> 84.3		> 100				37.4		53.4		> 83.8		61.5		> 88.4
N#Cc1cc2c(cc1Cl)SC(=Nc1ccccc1)N(S(=O)(=O)c1ccc(Br)s1)S2(=O)=O	19.1	35.9	28.8	55.8	15.5	39.1	15.1	45.1	15	37.8	16	30.3	24	49.6		
CC(=O)/C(=C/N1CCN(C(=O)c2ccco2)C1=S)C(=O)c1ccccc1	11.7	27.7									8.12	15.4	7.65	15.2	16.3	> 50
O=C1C(OC(=O)c2ccccc2)=C(c2ccc(O)cc2)C(=O)C(OC(=O)c2ccccc2)=C1c1ccc(O)cc1				> 100		> 100				> 100		> 100		> 100		> 100
Nc1ccn(C2CC3OCC3O2)c(=O)n1 (stereo not given)		> 100		> 100		> 100				> 100		> 100		> 100		> 100
O=[N+]([O-])c1ccc2nc(-c3ccc(Cl)cc3)[nH]c2c1		40.1		58		30.5						29.7		> 100		80.1
